Measurements as given in patent publication US20260091015A1, “TREATING IRON DEFICIENCY WITH FERRIC CARBOXYMALTOSE” (PHARMACOSMOS HOLDING A/S, priority 2018, published 2026).

What was measured:
[1] = tested on: ionized calcium; assay: Ionized calcium, ion-selective electrode, trials IDA-04/IDA-05; format: in vivo, human; settings: IDA-04 and IDA-05 combined
Excerpt: The term “serum ionized calcium” as used herein refers to the level of calcium ions (Ca^2+) in blood serum as measured using the IL GEM Premier 3500 PAK cartridge. The central component is the sensor card, which provides a low volume, gas tight chamber in which the blood sample is presented to the sensors. The pH and electrolyte sensors are all based on the principle of ion-selective electrodes; that is, an electrical potential can be established across a membrane which is selectively permeable to a specific ion. The pH and electrolyte sensors are polyvinyl chloride (PVC) based ion selective electrodes, consisting of an internal Ag/AgCl reference electrode and internal salt layer. The potentials are measured against the card reference electrode. […]
The following safety laboratory assessments were analysed: • S-phosphate: inorganic phosphorous forms an ammonium phosphomolybdate complex having the formula (NH4)3[PO4](MoO3)12 with ammonium molybdate in the presence of sulfuric acid. The complex was determined photometrically in the ultraviolet region (340 nm) of the spectrum using the Roche Modular and Cobas Analyzer. • iFGF23 and cFGF23: the human intact FGF23 was measured by the 2nd generation Elisa kit manufactured by Immonotropics, Inc, San Clemente, CA. […] The human C-terminal FGF23 was measured by the Elisa kit manufactured by Immonotropics, Inc, San Clemente, CA. […]

[2] = tested on: intact FGF23; settings: women with IDA secondary to heavy uterine bleeding; Wolf et al., 2013; cited from earlier work
[3] = tested on: biochemical bone/muscle markers; assay: Biochemical bone/muscle markers (PINP, CTx, bone specific and total alkaline phosphatase), trials IDA-04/IDA-05; format: in vivo, human
Excerpt: The term “serum Bone Specific Alkaline Phosphatase” as used herein refers to the level of Bone specific Alkaline Phosphatase in blood serum as measured using the Beckman-Coulter Ostase assay which is a one-step immunoenzymatic chemiluminescence assay using a mouse monoclonal antibody specific to Bone Specific Alkaline Phosphatase (BAP).
The term “serum Alkaline Phosphatase” as used herein refers to the level of Alkaline Phosphatase in blood serum as measured enzymatically using a Roche Modular Analyzer. In the presence of magnesium and zinc ions, p-nitrophenyl phosphate is cleaved by phosphatase into phosphate and p-nitrophenol. The p-nitrophenol released is proportional to the Alkaline Phosphatase activity and is measured photometrically.
The term “serum N-terminal Propeptide of Type I Collagen (PINP)” as used herein refers to the level of PINP in blood serum as measured using a sandwich principle, electrochemiluminescence immunoassay (ECLIA) on a Cobas e601 Analyzer. During the first incubation, PINP in the sample and a biotinylated monoclonal PINP-specific antibody are incubated together. During the second incubation, streptavidin-coated labelled microparticles and a monoclonal PINP-specific antibody labelled with ruthenium complex (Trs (2,2-bipyridyl)ruthenium (II)-complex (Ru(bpy)23+)) are added to form a sandwich complex, which binds to the solid phase via interaction of biotin and streptavidin. The reaction mixture is aspirated into the measuring cell where the microparticles are magnetically captured onto the surface of the electrode. A voltage is applied to the electrode, which induces chemiluminescent emission, which is measured by a photomultiplier. Results are determined via a calibration curve, which is instrument-specifically generated by a 2-point calibration and a master curve provided via the reagent barcode.
The term “serum Carboxy-terminal Collagen Crosslinks (CTx)” as used herein refers to the level of CTx in blood serum as measured using a sandwich principle, electrochemiluminescence immunoassay (ECLIA) on a Cobas e601 Analyzer. During the first incubation, 50 μL of sample and biotinylated monoclonal anti-beta-CrossLaps antibodies are incubated together. During the second incubation, streptavidin-coated labelled microparticles and a monoclonal P-beta-CrossLaps-specific antibody labelled with ruthenium complex are added to form a sandwich complex, which binds to the solid phase via interaction of biotin and streptavidin. The reaction mixture is aspirated into the measuring cell where the microparticles are magnetically captured onto the surface of the electrode. Unbound substances are then removed with ProCell. A voltage is applied to the electrode, which induces chemiluminescent emission, which is measured by a photomultiplier. Results are determined via a calibration curve, which is instrument-specifically generated by a 2-point calibration and a master curve provided via the reagent barcode.
The trial was a randomized, open-label, comparative trial. Subjects with Iron Deficiency Anaemia (IDA) were randomized 1:1 to one treatment course of one of the following treatments: • Group A: iron isomaltoside 1000 (Monofer®, Pharmacosmos, Holbok, Denmark, termed iron isomaltoside in the following), 1000 mg at baseline • Group B: ferric carboxymaltose (Ferinject®/Injectafer®, Vifor Inc, Switzerland), 750 mg at baseline and day 7, cumulative dose: 1500 mg […]

ionized calcium [1]: decrease
Alkaline Phosphatase ([3]; compared to IMM): statistically significant increase
Bone Specific Alkaline Phosphatase ([3]; compared to IMM): statistically significant increase
CTx values ([3]; compared to IMM): statistically significant lower
N-terminal PINP values ([3]; compared to IMM): statistically significant lower
bone turnover ([3]; treatment according to current practice): increased
Substance: ferric carboxymaltose [FCM]
iFGF23 levels [2]: temporarily increased
